Laboratory results published in patent publication US8580824B2, “Pyridin-4-yl derivatives as immunomodulating agents” (Actelion Pharmaceuticals Ltd., priority 2006, dated 2013).

Legend:
[1] = target: recombinant human S1P1 receptor (Homo sapiens, UniProt P21453); assay: GTPγS assay to determine EC50 values; type: biochemical; conditions: agonistic activity; membrane preparations of CHO cells expressing recombinant human S1P1 receptor; 35S-GTPγS binding
Description: i) GTPγS assay to determine EC50 values
GTPγS binding assays are performed in 96 well microtiter plates (Nunc, 442587) in a final volume of 200 μl, using membrane preparations of CHO cells expressing recombinant human S1P1 receptor. Assay conditions are 20 mM Hepes (Fluka, 54461), 100 mM NaCl (Fluka, 71378), 5 mM MgCl2 (Fluka, 63064), 0.1% BSA (Calbiochem, 126609), 1 μM GDP (Sigma, G-7127), 2.5% DMSO (Fluka, 41644), 50 pM ^35S-GTPγS (Amersham Biosciences, SJ1320). The pH is 7.4. Test compounds are dissolved and diluted in 100% DMSO and pre-incubated at room temperature for 30 min in 150 μl of the above assay buffer, in the absence of ^35S-GTPγS. After addition of 50 μl of ^35S-GTPγS, the assay is incubated for 1 h at rt. The assay is terminated by transfer of the reaction mixture to a Multiscreen plate (Millipore, MAHFC1H60) using a cell harvester from Packard Biosciences, and the plates are washed with ice-cold 10 mM Na2HPO4/NaH2PO4 (70%/30%), dried, sealed at the bottom and, after addition of 25 μl MicroScint20 (Packard Biosciences, order#6013621), sealed on the top. Membrane-bound ^35S-GTPγS is measured with a TopCount from Packard Biosciences.
EC50 is the concentration of agonist inducing 50% of the maximal specific ^35S-GTPγS binding. Specific binding is determined by subtracting non-specific binding from maximal binding. Maximal binding is the amount of cpm bound to the Multiscreen plate in the presence of 10 μM of S1P. Non-specific binding is the amount of binding in the absence of an agonist in the assay.

[2] = system: circulating lymphocytes in normotensive male Wistar rats; assay: Assessment of in vivo efficacy: circulating lymphocytes after oral administration; set-up: species or system rat; conditions: 6 h after oral administration of 10 mg/kg to normotensive male Wistar rats, compared to vehicle-treated group
Description: The efficacy of the compounds of Formula (I) is assessed by measuring the circulating lymphocytes after oral administration of 3 to 30 mg/kg of a compound of Formula (I) to normotensive male Wistar rats. The animals are housed in climate-controlled conditions with a 12 h-light/dark cycle, and have free access to normal rat chow and drinking water. Blood is collected before and 3, 6 and 24 h after drug administration. Full blood is subjected to hematology using Advia Hematology system (Bayer Diagnostics, Zurich, Switzerland).
All data are presented as mean±SEM. Statistical analyses are performed by analysis of variance (ANOVA) using Statistica (StatSoft) and the Student-Newman-Keuls procedure for multiple comparisons. The null hypothesis is rejected when p<0.05.
Lymphocyte counts 6 h after oral administration have been measured for 51 from 244 exemplified compounds (one being dosed at 3 mg/kg) and are in the range of −78% to −53% with an average of −67%.

Chain of recombinant human S1P1 receptor (P21453 whole entry): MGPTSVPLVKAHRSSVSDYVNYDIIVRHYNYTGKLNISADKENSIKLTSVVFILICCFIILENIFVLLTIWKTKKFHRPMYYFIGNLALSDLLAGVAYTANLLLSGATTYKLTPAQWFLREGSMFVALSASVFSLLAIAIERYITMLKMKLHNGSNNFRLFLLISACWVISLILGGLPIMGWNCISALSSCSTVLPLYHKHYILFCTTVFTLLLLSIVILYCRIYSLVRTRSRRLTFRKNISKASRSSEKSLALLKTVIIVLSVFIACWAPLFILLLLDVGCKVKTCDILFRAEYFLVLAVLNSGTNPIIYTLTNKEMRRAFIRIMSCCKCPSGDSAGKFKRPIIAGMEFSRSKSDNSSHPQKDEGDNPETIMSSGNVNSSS

Row | EC50 [1] | Structure (SMILES) | Lymphocyte counts [2]
1 | 4.3 nM | CCc1cc(-c2noc(-c3cc(C)c(OC[C@@H](O)CNC(=O)CO)c(CC)c3)n2)cc(C)n1 [Example 74] | 
2 | 0.6 nM | CCc1cc(-c2noc(-c3cc(C)nc(C(CC)CC)c3)n2)cc(C)c1OC[C@@H](O)CO [Example 196] | 
3 | 0.2 nM | Cc1cc(-c2nc(-c3cc(C)c(OCC(O)CNC(=O)CO)c(C)c3)no2)cc(CC(C)C)n1 (racemic) [Example 11, 2-Hydroxy-N-((RS)-2-hydroxy-3-{4-[5-(2-isobutyl-6-methyl-pyridin-4-yl)-[1,2,4]oxadiazol-3-yl]-2,6-dimethyl-phenoxy}-propyl)-acetamide] | 
4 | 0.9 nM | CCc1cc(-c2noc(-c3cc(CC(C)C)nc(OC)c3)n2)cc(C)c1OC[C@@H](O)CNC(=O)CO [Example 226] | 
5 | 0.7 nM | Cc1cc(-c2noc(-c3cc(Cl)nc(CC(C)C)c3)n2)cc(C)c1OCC(O)CO (racemic) [Example 4, (RS)-3-{4-[5-(2-Chloro-6-isobutyl-pyridin-4-yl)-[1,2,4]oxadiazol-3-yl]-2,6-dimethyl-phenoxy}-propane-1,2-diol] | 
6 | 1.8 nM | CCCc1cc(-c2nnc(-c3cc(C)c(OC[C@@H](O)CNC(=O)CO)c(C)c3)o2)cc(C)n1 [Example 111] | 
7 | 0.8 nM | CCc1cc(-c2nnc(-c3cc(C)nc(CC(C)C)c3)o2)cc(C)c1OC[C@@H](O)CNC(=O)CO [Example 180] | 

The remaining lines, values behind:

Row | Structure (SMILES) | EC50 [1] | Lymphocyte counts [2]
8 | Cc1cc(-c2nc(-c3cc(C)c(OCC(O)CNC(=O)CO)c(Cl)c3)no2)cc(CC(C)C)n1 (centres unmarked) [Example 145] | 0.2 nM | 
9 | CCc1cc(-c2nc(-c3cc(C)c(OC[C@H](O)CNC(=O)CO)c(Cl)c3)no2)cc(C)n1 [Example 60] | 0.5 nM | 
10 | Cc1cc(-c2noc(-c3cc(Cl)nc(OC(C)C)c3)n2)cc(C)c1OCC(O)CNC(=O)CO (racemic) [Example 26, N-((RS)-3-{4-[5-(2-Chloro-6-isopropoxy-pyridin-4-yl)-[1,2,4]oxadiazol-3-yl]-2,6-dimethyl-phenoxy}-2-hydroxy-propyl)-2-hydroxy-acetamide] | 0.4 nM | 
11 | Cc1cc(-c2nc(-c3cc(C)c(OCC(O)CO)c(C)c3)no2)cc(CC(C)C)n1 (racemic) [Example 9, (RS)-3-{4-[5-(2-Isobutyl-6-methyl-pyridin-4-yl)-[1,2,4]oxadiazol-3-yl]-2,6-dimethyl-phenoxy}-propane-1,2-diol] |  | −67%
12 | COc1cc(-c2noc(-c3cc(C)nc(CC(C)C)c3)n2)cc(Cl)c1OC[C@H](O)CNC(=O)CO [Example 160] | 0.7 nM | 
13 | COc1cc(-c2noc(-c3cc(C)nc(CC(C)C)c3)n2)cc(C)c1OCC(O)CNC(=O)CO (racemic) [Example 159, (RS)-2-Hydroxy-N-(2-hydroxy-3-{4-[5-(2-isobutyl-6-methyl-pyridin-4-yl)-[1,2,4]oxadiazol-3-yl]-2-methoxy-6-methyl-phenoxy}-propyl)-acetamide] |  | −74%
14 | CCCc1cc(-c2noc(-c3cc(C)nc(C(C)C)c3)n2)cc(C)c1OC[C@@H](O)CNC(=O)CO [Example 123] | 0.4 nM | 
15 | CCc1cc(-c2ncc(-c3cc(C)nc(CC(C)C)c3)o2)cc(C)c1OC[C@@H](O)CO [Example 235, (S)-3-{2-Ethyl-4-[5-(2-isobutyl-6-methyl-pyridin-4-yl)-oxazol-2-yl]-6-methyl-phenoxy}-propane-1,2-diol] | 5.8 nM | 
16 | CCOc1cc(-c2nc(-c3cc(C)c(OCC(O)CO)c(C)c3)no2)cc(C)n1 (racemic) [Example 27, (RS)-3-{4-[5-(2-Ethoxy-6-methyl-pyridin-4-yl)-[1,2,4]oxadiazol-3-yl]-2,6-dimethyl-phenoxy}-propane-1,2-diol] | 2.5 nM | 
17 | CCc1cc(-c2nc(-c3cc(C)c(OCC(O)CO)c(C)c3)no2)cc(C)n1 (racemic) [Example 8, (RS)-3-{4-[5-(2-Ethyl-6-methyl-pyridin-4-yl)-[1,2,4]oxadiazol-3-yl]-2,6-dimethyl-phenoxy}-propane-1,2-diol] |  | −62%
18 | CCCc1cc(-c2nc(-c3cc(C)c(O)c(CC)c3)no2)cc(C)n1 [Example 86] | 5.6 nM | 
19 | CCCc1cc(-c2nc(-c3cc(C)c(OCC(O)CNC(=O)CO)c(C)c3)no2)cc(C)n1 (centres unmarked) [Example 95] | 0.4 nM | 
20 | Cc1cc(-c2nc(-c3cc(C)c(OCC(O)CNC(=O)CO)c(C)c3)no2)cc(OC(C)C)n1 (racemic) [Example 30, 2-Hydroxy-N-((RS)-2-hydroxy-3-{4-[5-(2-isopropoxy-6-methyl-pyridin-4-yl)-[1,2,4]oxadiazol-3-yl]-2,6-dimethyl-phenoxy}-propyl)-acetamide] |  | −73%
